Experimental data taken from patent US12331040B2 (Karyopharm Therapeutics Inc., priority 2013, dated 2025).
pIC50: −log10 of the molar value.

What was measured:
Assay in all cases: MTT cell proliferation assay
Format in all cases: cell-based
Z138 cells = conditions: Homo sapiens, Z-138, Z138 cells; approximately 64-72 hours incubation; read-out: MTT Assay IC50 Z-138
Method: (§1) The MTT cell proliferation assay was used to study the cytotoxic properties of the compounds. The assay was performed according to the method described by Roche Molecular Biochemicals, with minor modifications. The assay is based on the cleavage of the tetrazolium salt, MTT, in the presence of an electron-coupling reagent. The water-insoluble formazan salt produced must be solubilized in an additional step. Cells grown in a 96-well tissue culture plate were incubated with the MTT solution for approximately 4 hours. After this incubation period, a water-insoluble formazan dye formed. After solubilization, the formazan dye was quantitated using a scanning multi-well spectrophotometer (ELISA reader). […] The cells were seeded at 5,000-10,000 cells in each well of 96-well plate in 100 μL of fresh culture medium and were allowed to attach overnight. The stock solutions of the compounds were diluted in 100 μL cell culture medium to obtain eight concentrations of each test compound, ranging from 1 nM to 30 μM. […] All optical densities were measured at 490 nm using a Vmax Kinetic Microplate Reader (Molecular Devices). In most cases, the assay was performed in duplicate and the results were presented as a mean percent inhibition to the negative control±SE. The following formula was used to calculate the percent of inhibition: Inhibition (%)=(1−(ODo/OD))×100.
(§2) The compounds were tested against MS751, Z138 and 3T3 cells. The MS751 cell line is derived from a metastasis to lymph node of human cervix from a patient diagnosed with squamous cell carcinoma of the cervix. The Z138 cell line is a mature B-cell acute lymphoblastic leukemia cell line derived from a patient with chronic lymphocytic leukemia. 3T3 cells are standard fibroblast cells; they were originally isolated from Swiss mouse embryo tissue.

MS751 cells = conditions: Homo sapiens, MS751, MS751 cells; approximately 64-72 hours incubation; read-out: MTT Assay IC50 MS-751
Method: as §1, §2

3T3 cells = conditions: Mus musculus, NIH3T3, approximately 64-72 hours incubation, read-out: MTT Assay IC50 3T3
Method: as §1, §2

Structure (SMILES): Nc1ccc(/C=C/C(=O)NCc2cc3cc(-c4ccc(C(=O)N5CC[C@@H](F)C5)cc4)cc(C(F)(F)F)c3o2)cn1 [Compound 522, (R,E)-3-(6-aminopyridin-3-yl)-N-((5-(4-(3-fluoropyrrolidine-1-carbonyl)phenyl)-7-(trifluoromethyl)benzofuran-2-yl)methyl)acrylamide]
- pIC50 (Z138 cells): 5.30 to 7.00
- pIC50 (MS751 cells): 5.30 to 7.00
- pIC50 (3T3 cells): < 5.00

Structure (SMILES): Nc1ccc(/C=C/C(=O)NCc2cc3cc(-c4ccc(C(=O)N5CC[C@@H](F)C5)cc4)cc(Cl)c3o2)cn1 [Compound 523, (R,E)-3-(6-aminopyridin-3-yl)-N-((7-chloro-5-(4-(3-fluoropyrrolidine-1-carbonyl)phenyl)benzofuran-2-yl)methyl)acrylamide]
- pIC50 (Z138 cells): < 5.00
- pIC50 (MS751 cells): < 5.00
- pIC50 (3T3 cells): < 5.00

Structure (SMILES): Nc1ccc(/C=C/C(=O)NCc2cc3cc(-c4ccc(C(=O)N5CC(F)C5)cc4)cc(C(F)(F)F)c3o2)cn1 [Compound 524, (E)-3-(6-aminopyridin-3-yl)-N-((5-(4-(3-fluoroazetidine-1-carbonyl)phenyl)-7-(trifluoromethyl)benzofuran-2-yl)methyl)acrylamide]
- pIC50 (Z138 cells): 5.30 to 7.00
- pIC50 (MS751 cells): 5.30 to 7.00
- pIC50 (3T3 cells): < 5.00

Structure (SMILES): CC1(C)CN(C(=O)c2ccc(-c3cc(C(F)(F)F)c4oc(CNC(=O)/C=C/c5ccc(N)nc5)cc4c3)cc2)C1 [Compound 526, (E)-3-(6-aminopyridin-3-yl)-N-((5-(4-(3,3-dimethylazetidine-1-carbonyl)phenyl)-7-(trifluoromethyl)benzofuran-2-yl)methyl)acrylamide]
- pIC50 (Z138 cells): 5.30 to 7.00
- pIC50 (MS751 cells): 5.30 to 7.00
- pIC50 (3T3 cells): < 5.00

Structure (SMILES): Nc1ccc(/C=C/C(=O)NCc2cc3cc(-c4ccc(S(=O)(=O)N5CC[C@@H](F)C5)cc4)cc(Cl)c3o2)cn1 [Compound 527, (R,E)-3-(6-aminopyridin-3-yl)-N-((7-chloro-5-(4-(3-fluoropyrrolidin-1-ylsulfonyl)phenyl)benzofuran-2-yl)methyl)acrylamide]
- pIC50 (Z138 cells): 5.30 to 7.00
- pIC50 (MS751 cells): 5.30 to 7.00
- pIC50 (3T3 cells): < 5.00

Structure (SMILES): Nc1ccc(/C=C/C(=O)NCc2cc3cc(-c4ccc(C(=O)N5CC[C@H](F)C5)cc4)cc(Cl)c3o2)cn1 [Compound 528, (S,E)-3-(6-aminopyridin-3-yl)-N-((7-chloro-5-(4-(3-fluoropyrrolidine-1-carbonyl)phenyl)benzofuran-2-yl)methyl)acrylamide]
- pIC50 (Z138 cells): < 5.00
- pIC50 (MS751 cells): < 5.00
- pIC50 (3T3 cells): < 5.00

Structure (SMILES): CC1(C)CN(C(=O)c2ccc(-c3cc(Cl)c4oc(CNC(=O)/C=C/c5ccc(N)nc5)cc4c3)cc2)C1 [Compound 529, (E)-3-(6-aminopyridin-3-yl)-N-((7-chloro-5-(4-(3,3-dimethylazetidine-1-carbonyl)phenyl)benzofuran-2-yl)methyl)acrylamide]
- pIC50 (Z138 cells): 5.30 to 7.00
- pIC50 (MS751 cells): 5.00 to 5.30
- pIC50 (3T3 cells): < 5.00

Structure (SMILES): CC1(C)CN(C(=O)c2ccc(-c3cc(C(F)(F)F)c4oc(CNC(=O)/C=C/c5ccc(N)nc5)cc4c3)cc2)CCO1 [Compound 530, (E)-3-(6-aminopyridin-3-yl)-N-((5-(4-(2,2-dimethylmorpholine-4-carbonyl)phenyl)-7-(trifluoromethyl)benzofuran-2-yl)methyl)acrylamide]
- pIC50 (Z138 cells): 5.30 to 7.00
- pIC50 (MS751 cells): 5.30 to 7.00
- pIC50 (3T3 cells): < 5.00

Structure (SMILES): Nc1ccc(/C=C/C(=O)NCc2cc3cc(-c4ccc(S(=O)(=O)N5CCOCC5)cc4)cc(C(F)(F)F)c3o2)cn1 [Compound 531, (E)-3-(6-aminopyridin-3-yl)-N-((5-(4-(morpholinosulfonyl)phenyl)-7-(trifluoromethyl)benzofuran-2-yl)methyl)acrylamide]
- pIC50 (Z138 cells): 5.30 to 7.00
- pIC50 (MS751 cells): > 7.00
- pIC50 (3T3 cells): 5.30 to 7.00

Structure (SMILES): Nc1ccc(/C=C/C(=O)NCCc2cc3cc(-c4ccc(C(=O)N5CCOCC5)cc4)cc(Cl)c3o2)cn1 [Compound 532, (E)-3-(6-aminopyridin-3-yl)-N-(2-(7-chloro-5-(4-(morpholine-4-carbonyl)phenyl)benzofuran-2-yl)ethyl)acrylamide]
- pIC50 (Z138 cells): > 7.00
- pIC50 (MS751 cells): > 7.00
- pIC50 (3T3 cells): > 7.00

Structure (SMILES): Nc1ccc(/C=C/C(=O)NCc2cc3cc(-c4ccc(S(=O)(=O)N5CC(F)C5)cc4)cc(Cl)c3o2)cn1 [Compound 533, (E)-3-(6-aminopyridin-3-yl)-N-((7-chloro-5-(4-(3-fluoroazetidin-1-ylsulfonyl)phenyl)benzofuran-2-yl)methyl)acrylamide]
- pIC50 (Z138 cells): 5.30 to 7.00
- pIC50 (MS751 cells): 5.30 to 7.00
- pIC50 (3T3 cells): < 5.00

Structure (SMILES): Nc1ccc(/C=C/C(=O)NCc2cc3cc(-c4cncc(C(=O)N5CCOCC5)c4)cc(Cl)c3o2)cn1 [Compound 534, (E)-3-(6-aminopyridin-3-yl)-N-((7-chloro-5-(5-(morpholine-4-carbonyl)pyridin-3-yl)benzofuran-2-yl)methyl)acrylamide]
- pIC50 (Z138 cells): 5.30 to 7.00
- pIC50 (MS751 cells): 5.30 to 7.00
- pIC50 (3T3 cells): < 5.00

Structure (SMILES): O=C(/C=C/c1ccncc1)NCc1cc2cc(-c3ccc(C(=O)N4CCOCC4)cc3)cc(Cl)c2o1 [Compound 535, (E)-N-((7-Chloro-5-(4-(morpholine-4-carbonyl)phenyl)benzofuran-2-yl)methyl)-3-(pyridin-4-yl)acrylamide]
- pIC50 (Z138 cells): < 5.00
- pIC50 (MS751 cells): < 5.00
- pIC50 (3T3 cells): < 5.00

Structure (SMILES): O=C(/C=C/c1ccc(C(F)(F)F)nc1)NCc1cc2cc(-c3ccc(C(=O)N4CCOCC4)cc3)cc(Cl)c2o1 [Compound 536, (E)-N-((7-Chloro-5-(4-(morpholine-4-carbonyl)phenyl)benzofuran-2-yl)methyl)-3-(6-(trifluoromethyl)pyridin-3-yl)acrylamide]
- pIC50 (Z138 cells): 5.00 to 5.30
- pIC50 (MS751 cells): < 5.00
- pIC50 (3T3 cells): < 5.00

Structure (SMILES): O=C(/C=C/c1ccc(Cl)nc1)NCc1cc2cc(-c3ccc(C(=O)N4CCOCC4)cc3)cc(Cl)c2o1 [Compound 537, (E)-N-((7-Chloro-5-(4-(morpholine-4-carbonyl)phenyl)benzofuran-2-yl)methyl)-3-(6-chloropyridin-3-yl)acrylamide]
- pIC50 (Z138 cells): < 5.00
- pIC50 (MS751 cells): < 5.00
- pIC50 (3T3 cells): < 5.00

Structure (SMILES): O=C(/C=C/c1cccnc1)NCc1cc2cc(-c3ccc(C(=O)N4CCOCC4)cc3)cc(Cl)c2o1 [Compound 538, (E)-N-((7-chloro-5-(4-(morpholine-4-carbonyl)phenyl)benzofuran-2-yl)methyl)-3-(pyridin-3-yl)acrylamide]
- pIC50 (Z138 cells): 5.30 to 7.00
- pIC50 (MS751 cells): 5.30 to 7.00
- pIC50 (3T3 cells): 5.30 to 7.00

Structure (SMILES): O=C(/C=C/c1ccccn1)NCc1cc2cc(-c3ccc(C(=O)N4CCOCC4)cc3)cc(Cl)c2o1 [Compound 539, (E)-N-((7-chloro-5-(4-(morpholine-4-carbonyl)phenyl)benzofuran-2-yl)methyl)-3-(pyridin-2-yl)acrylamide]
- pIC50 (Z138 cells): 5.30 to 7.00
- pIC50 (MS751 cells): 5.30 to 7.00
- pIC50 (3T3 cells): < 5.00

Structure (SMILES): O=C(/C=C/c1cccnn1)NCc1cc2cc(-c3ccc(C(=O)N4CCOCC4)cc3)cc(Cl)c2o1 [Compound 540, (E)-N-((7-chloro-5-(4-(morpholine-4-carbonyl)phenyl)benzofuran-2-yl)methyl)-3-(pyridazin-3-yl)acrylamide]
- pIC50 (Z138 cells): 5.00 to 5.30
- pIC50 (MS751 cells): 5.00 to 5.30
- pIC50 (3T3 cells): 5.00 to 5.30

Structure (SMILES): Cc1noc(C)c1/C=C/C(=O)NCc1cc2cc(-c3ccc(C(=O)N4CCOCC4)cc3)cc(Cl)c2o1 [Compound 541, (E)-N-((7-Chloro-5-(4-(morpholine-4-carbonyl)phenyl)benzofuran-2-yl)methyl)-3-(3,5-dimethylisoxazol-4-yl)acrylamide]
- pIC50 (Z138 cells): 5.30 to 7.00
- pIC50 (MS751 cells): 5.30 to 7.00
- pIC50 (3T3 cells): < 5.00

Structure (SMILES): O=C(/C=C/c1cscn1)NCc1cc2cc(-c3ccc(C(=O)N4CCOCC4)cc3)cc(Cl)c2o1 [Compound 542]
- pIC50 (Z138 cells): 5.30 to 7.00
- pIC50 (MS751 cells): 5.30 to 7.00
- pIC50 (3T3 cells): < 5.00

Structure (SMILES): Nc1ccc(/C=C/C(=O)NCc2cc3cc(-c4cccc(C(=O)N5CCOCC5)c4)cc(Cl)c3o2)cn1 [Compound 543, (E)-3-(6-Aminopyridin-3-yl)-N-((7-chloro-5-(3-(morpholine-4-carbonyl)phenyl)benzofuran-2-yl)methyl)acrylamide]
- pIC50 (Z138 cells): > 7.00
- pIC50 (MS751 cells): > 7.00
- pIC50 (3T3 cells): 5.30 to 7.00

Structure (SMILES): Nc1ccc(/C=C/C(=O)NCc2cc3cc(-c4cnc(C(=O)N5CCOCC5)c(F)c4)cc(Cl)c3o2)cn1 [Compound 544, (E)-3-(6-aminopyridin-3-yl)-N-((7-chloro-5-(5-fluoro-6-(morpholine-4-carbonyl)pyridin-3-yl)benzofuran-2-yl)methyl)acrylamide]
- pIC50 (Z138 cells): 5.30 to 7.00
- pIC50 (MS751 cells): 5.30 to 7.00
- pIC50 (3T3 cells): < 5.00

Structure (SMILES): Nc1ccc(/C=C/C(=O)NCc2cc3cc(-c4ccc(C(=O)C(=O)N5CCOCC5)cc4)cc(Cl)c3o2)cn1 [Compound 545, (E)-3-(6-Aminopyridin-3-yl)-N-((7-chloro-5-(4-(2-morpholino-2-oxoacetyl)phenyl)benzofuran-2-yl)methyl)acrylamide]
- pIC50 (Z138 cells): 5.30 to 7.00
- pIC50 (MS751 cells): 5.30 to 7.00
- pIC50 (3T3 cells): 5.00 to 5.30
